Values of other authors as cited in patent US20050232866A1, “Biochemically-activated contrast agents for magnetic resonance imaging” (Alerion Biomedical Inc., priority 2004, published 2005).

What was measured:
[1] = Gd(III) chelate
[2] = physiological pH

Row | Compound | stability constant (formation constant) logK [1] | dissociation kinetics [2]
1 | O=C([O-])CN(CCN(CC(=O)[O-])CC(=O)O)CCN(CC(=O)[O-])CC(=O)O.[Gd+3] [Gd(DTPA)] | 22.4 | 
2 | O=C([O-])CN1CCN(CC(=O)[O-])CCN(CC(=O)O)CCN(CC(=O)[O-])CC1.[Gd+3] [Gd-DOTA] | 28.5 | very slow dissociation kinetics
